Earlier results as cited in US9757705B2, “Method for production of concentrates of preferably water-soluble active agents” (KWIZDA AGRO GMBH, priority 2013, dated 2017).

Conditions: at 20° C.; according to literature

In the case of `C/C(=N\C#N)N(C)Cc1ccc(Cl)nc1` [Acetamiprid], the solubility is listed as 400 mg/100 ml.
